Experimental data from patent US12006301B1, “And synthesis of dual 5-HT1A and 5-HT7 receptor ligands” (Florida A&M University, priority 2021, dated 2024).
Counter-ions that a name gives are not always drawn. Like-named read-outs stand apart in the source and are kept apart here.

Assays:
[1] = molecular target: D2R (Homo sapiens, UniProt P14416); assay: NIMH-PDSP radioligand binding affinity, D2; details: for inhibition at 10 µM: read-out: D2 binding, 50% threshold inhibition (MT)
[2] = molecular target: serotonin transporter (SERT) (Homo sapiens, UniProt P31645); assay: NIMH-PDSP radioligand binding affinity, SERT; details: read-out: SERT binding, 50% threshold inhibition (MT)
Method: Binding affinities reported in Tables 1-3 were conducted by the National Institute of Mental Health Psychoactive Drug Screening Program (NIMH-PDSP).

[3] = molecular target: T1, 5-HT2CR (Homo sapiens, UniProt P28335); assay: NIMH-PDSP radioligand binding affinity, 5-HT2C; details: for inhibition at 10 µM: read-out: 5-HT2C binding, 50% threshold inhibition (MT)
T1 sequence (P28335 33-458): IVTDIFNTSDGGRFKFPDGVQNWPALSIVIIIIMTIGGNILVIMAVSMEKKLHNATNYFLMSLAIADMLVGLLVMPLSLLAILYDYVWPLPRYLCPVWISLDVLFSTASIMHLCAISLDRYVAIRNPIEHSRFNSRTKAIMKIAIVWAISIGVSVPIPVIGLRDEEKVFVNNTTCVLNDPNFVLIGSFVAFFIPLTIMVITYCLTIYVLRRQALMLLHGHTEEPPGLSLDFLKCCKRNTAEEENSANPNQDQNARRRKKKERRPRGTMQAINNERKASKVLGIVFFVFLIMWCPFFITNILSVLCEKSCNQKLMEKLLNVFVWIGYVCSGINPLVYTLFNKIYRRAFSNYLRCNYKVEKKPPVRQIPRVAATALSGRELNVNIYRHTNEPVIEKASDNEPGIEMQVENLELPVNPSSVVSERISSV

[4] = molecular target: D3R (Homo sapiens, UniProt P35462); assay: NIMH-PDSP radioligand binding affinity, D3
[5] = animal models, rats, cited from earlier work
[6] = animal studies, cited from earlier work
[7] = molecular target: T2, D4R (Homo sapiens, UniProt P21917); assay: NIMH-PDSP radioligand binding affinity, D4; details: read-out: D4 binding, 50% threshold inhibition (MT)
T2 sequence (P21917 1-419): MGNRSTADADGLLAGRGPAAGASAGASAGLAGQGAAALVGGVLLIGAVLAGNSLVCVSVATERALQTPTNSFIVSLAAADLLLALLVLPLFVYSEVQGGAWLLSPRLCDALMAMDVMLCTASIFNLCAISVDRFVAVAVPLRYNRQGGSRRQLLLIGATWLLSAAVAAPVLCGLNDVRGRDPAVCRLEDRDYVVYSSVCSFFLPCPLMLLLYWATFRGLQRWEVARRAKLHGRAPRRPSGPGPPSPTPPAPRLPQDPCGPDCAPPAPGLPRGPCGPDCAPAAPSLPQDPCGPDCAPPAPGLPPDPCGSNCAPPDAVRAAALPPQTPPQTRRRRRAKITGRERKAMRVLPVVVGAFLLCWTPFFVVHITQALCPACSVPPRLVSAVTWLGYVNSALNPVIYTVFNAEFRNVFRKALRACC

[8] = molecular target: T3, 5-HT7AR (Homo sapiens, UniProt P34969); assay: HEK-5-HT7A/cAMP adenylate cyclase functional assay, agonist effects; type: cell-based
T3 construct: expressed in transfected cells; host or cells: Human embryonic kidney (HEK) cells, transient transfection with PEI
T3 sequence (P34969 1-445 isoform P34969-2): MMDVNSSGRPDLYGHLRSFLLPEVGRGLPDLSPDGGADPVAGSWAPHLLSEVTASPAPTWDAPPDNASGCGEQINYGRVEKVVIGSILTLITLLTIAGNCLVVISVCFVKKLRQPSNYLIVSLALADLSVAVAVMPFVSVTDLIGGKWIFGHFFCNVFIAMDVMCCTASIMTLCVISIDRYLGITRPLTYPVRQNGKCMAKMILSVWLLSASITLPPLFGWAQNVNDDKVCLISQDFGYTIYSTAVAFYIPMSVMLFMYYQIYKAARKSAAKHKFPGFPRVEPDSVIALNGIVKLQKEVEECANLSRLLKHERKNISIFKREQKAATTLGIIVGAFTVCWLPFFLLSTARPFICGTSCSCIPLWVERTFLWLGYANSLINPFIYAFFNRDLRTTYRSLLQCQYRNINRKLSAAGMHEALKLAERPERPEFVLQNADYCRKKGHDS

Chain of serotonin transporter (SERT) (P31645 whole entry, species assumed): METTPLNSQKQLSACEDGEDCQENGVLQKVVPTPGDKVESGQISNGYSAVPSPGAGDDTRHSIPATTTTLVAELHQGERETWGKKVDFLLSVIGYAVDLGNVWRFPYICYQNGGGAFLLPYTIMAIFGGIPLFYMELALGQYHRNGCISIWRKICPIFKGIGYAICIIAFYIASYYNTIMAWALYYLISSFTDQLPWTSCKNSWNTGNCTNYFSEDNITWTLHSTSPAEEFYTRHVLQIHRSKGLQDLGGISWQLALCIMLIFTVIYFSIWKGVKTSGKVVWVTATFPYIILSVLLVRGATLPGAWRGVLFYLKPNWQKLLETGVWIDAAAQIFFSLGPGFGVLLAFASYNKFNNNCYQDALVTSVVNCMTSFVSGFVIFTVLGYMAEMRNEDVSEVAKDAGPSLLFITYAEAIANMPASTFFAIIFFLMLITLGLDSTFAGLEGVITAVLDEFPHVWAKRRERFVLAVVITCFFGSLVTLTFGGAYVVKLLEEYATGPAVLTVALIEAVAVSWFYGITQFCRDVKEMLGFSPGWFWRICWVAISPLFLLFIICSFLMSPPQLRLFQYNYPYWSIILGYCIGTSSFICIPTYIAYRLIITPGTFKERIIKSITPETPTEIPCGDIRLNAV
Chain of D2R (P14416 whole entry): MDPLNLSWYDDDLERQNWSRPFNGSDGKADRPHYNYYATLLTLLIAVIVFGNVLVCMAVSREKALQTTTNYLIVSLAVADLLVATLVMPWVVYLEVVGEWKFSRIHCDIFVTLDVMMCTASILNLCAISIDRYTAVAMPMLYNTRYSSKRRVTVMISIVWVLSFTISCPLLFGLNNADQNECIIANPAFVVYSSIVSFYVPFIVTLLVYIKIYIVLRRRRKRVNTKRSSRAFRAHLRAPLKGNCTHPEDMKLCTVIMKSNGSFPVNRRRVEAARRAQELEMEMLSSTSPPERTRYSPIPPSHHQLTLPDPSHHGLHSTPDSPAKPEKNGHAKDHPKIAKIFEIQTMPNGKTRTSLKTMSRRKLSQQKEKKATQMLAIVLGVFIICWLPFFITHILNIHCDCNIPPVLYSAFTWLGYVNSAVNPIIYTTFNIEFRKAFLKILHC
Chain of D3R (P35462 whole entry): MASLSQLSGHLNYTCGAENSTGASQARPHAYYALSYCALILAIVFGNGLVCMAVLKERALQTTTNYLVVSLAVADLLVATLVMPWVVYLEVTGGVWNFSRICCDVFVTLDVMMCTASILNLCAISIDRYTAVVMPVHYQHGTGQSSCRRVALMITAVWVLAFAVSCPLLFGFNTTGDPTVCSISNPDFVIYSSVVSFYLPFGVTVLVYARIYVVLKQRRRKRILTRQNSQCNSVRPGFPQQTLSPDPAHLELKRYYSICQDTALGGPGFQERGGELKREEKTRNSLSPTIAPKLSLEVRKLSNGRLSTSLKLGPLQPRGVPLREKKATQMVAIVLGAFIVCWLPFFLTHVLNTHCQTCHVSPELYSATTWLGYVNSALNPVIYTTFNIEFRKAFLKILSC

Row | SMILES | melting point | inhibition at 10 µM [2] | other results
1 | O=C1CCc2cc(CCCCN3CCN(c4ccccn4)CC3)ccc2N1 [Compound 8, 6-(4-(4-(pyridin-2-yl)piperazin-1-yl)butyl)-3,4-dihydroquinolin-2(1H)-one] | 144 to 145 °C |  | 
2 | O=C1c2ccc(Cl)cc2CC1CCCN1CCN(c2ccccn2)CC1 (centres unmarked) [Compound 19, 5-chloro-2-(3-(4-(pyridin-2-yl)piperazin-1-yl)propyl)-2,3-dihydro-1H-inden-1-one] |  |  | inhibition at 10 µM [1]: < 50%
3 | O=C1c2cc(Cl)ccc2CC1CCN1CCN(c2ccccn2)CC1 (centres unmarked) [Compound 17, 6-chloro-2-(2-(4-(pyridin-2-yl)piperazin-1-yl)ethyl)-2,3-dihydro-1H-inden-1-one] |  | < 50% | 
4 | O=C1CCc2cc(C(=O)CCCN3CCN(c4ccccn4)CC3)ccc2N1 [Compound 7, 6-(4-(4-(pyridin-2-yl)piperazin-1-yl)butanoyl)-3,4-dihydroquinolin-2(1H)-one] | 192 to 193 °C | < 50% | inhibition at 10 µM [3]: < 50%
5 | O=C1c2ccc(Cl)cc2CC1CCN1CCN(c2ccccn2)CC1 (centres unmarked) [Compound 15, 5-chloro-2-(2-(4-(pyridin-2-yl)piperazin-1-yl)ethyl)-2,3-dihydro-1H-inden-1-one] | 132 to 135 °C | < 50% | binding affinity at D2R (in words) [1]: lost; inhibition at 10 µM [1]: < 50%; binding affinity at D3R (in words) [4]: lost; inhibition at 10 µM ([4]; read-out: D3 binding, 50% threshold inhibition (MT)): < 50%
6 | Fc1ccc(CCCCN2CCN(c3ccccn3)CC2)cc1 [Compound 2, 1-(4-(4-fluorophenyl)butyl)-4-(pyridin-2-yl)piperazine] |  |  | catalepsy / motoric side effects (in words) [5]: low propensity to cause catalepsy; catalepsy / motoric side effects (in words) ([5]; listed as SYA 16263): low propensity to cause motoric side effects; catalepsy / motoric side effects (in words) ([5]; listed as SYA16263): absence of catalepsy; antipsychotic-like activity (in words) ([6]; listed as SYA 16263): moderate antipsychotic-like activity; antipsychotic-like activity (in words) ([6]; listed as SYA16263): antipsychotic-like properties
7 | O=C1CCc2cc(OCCCN3CCCN(c4ccccn4)CC3)ccc2N1 [Compound 10, 6-(3-(4-(pyridin-2-yl)-1,4-diazepan-1-yl)propoxy)-3,4-dihydroquinolin-2(1H)-one oxalate] |  |  | inhibition at 10 µM [7]: < 50%
8 | Nc1ccc(CCCCN2CCN(c3ccccn3)CC2)cc1 [Compound 6, 4-(4-(4-(pyridin-2-yl)piperazin-1-yl)butyl)aniline] |  | < 50% | inhibition at 10 µM [3]: < 50%
9 | O=C1c2ccc(F)cc2CC1CCN1CCN(c2ccccn2)CC1 (centres unmarked) [Compound 13, 5-Fluoro-2-(2-(4-(pyridin-2-yl)piperazin-1-yl)ethyl)-2,3-dihydro-1H-inden-1-one] |  | < 50% | binding affinity at D2R (in words) [1]: complete loss of binding affinity; inhibition at 10 µM [1]: < 50%; 5-HT2C binding, 50% threshold inhibition (MT) ([3]; 10 µM): MT (key: MT = missed 50% threshold inhibition at 10 μM concentration)
10 | CC(=O)Nc1ccc(C(=O)CCCN2CCN(c3ccccn3)CC2)cc1 [Compound 3, N-(4-(4-(4-(pyridin-2-yl)piperazin-1-yl)butanoyl)phenyl) acetamide oxalate] |  | < 50% | 
11 | CC(=O)Nc1ccc(C(=O)CCCN2CCN(c3ccccn3)CC2)cc1 (as salt: oxalate) [Compound 3, N-(4-(4-(4-(pyridin-2-yl)piperazin-1-yl)butanoyl)phenyl) acetamide oxalate] | 140 to 142 °C |  | 
12 | O=C1CCc2cc(OCCCN3CCCN(c4ccccn4)CC3)ccc2N1 (as salt: oxalate) [Compound 10, 6-(3-(4-(pyridin-2-yl)-1,4-diazepan-1-yl)propoxy)-3,4-dihydroquinolin-2(1H)-one oxalate] | 190 to 192 °C |  | 
13 | CC(=O)Nc1ccc(CCCCN2CCN(c3ccccn3)CC2)cc1 [Compound 4, N-(4-(4-(4-(pyridin-2-yl)piperazin-1-yl)butyl)phenyl)acetamide] |  | < 50% | 
14 | NCCc1c[nH]c2ccc(O)cc12 [Serotonin] |  |  | agonist activity at 5-HT7AR (in words) [8]: showed agonist properties
15 | Clc1ccc2c(c1)CC(CCN1CCN(c3ccccn3)CC1)C2 (centres unmarked) [Compound 16, 1-(2-(5-chloro-2,3-dihydro-1H-inden-2-yl)ethyl)-4-(pyridin-2-yl)piperazine] |  | < 50% | 
16 | O=C(CCCN1CCN(c2ccccn2)CC1)c1ccc2c(c1)CCC2 [Compound 12, 1-(2,3-Dihydro-1H-inden-5-yl)-4-(4-(pyridin-2-yl)piperazin-1-yl)butan-1-one] | 74 to 75 °C | < 50% | 
17 | OC1c2ccc(F)cc2CC1CCN1CCN(c2ccccn2)CC1 (centres unmarked) [Compound 14, 5-Fluoro-2-[2-(4-pyridin-2-yl-piperazin-1-yl)-ethyl]-indan-1-ol] |  |  | inhibition at 10 µM [3]: < 50%
18 | O=C1CCc2cc(OCCCN3CCN(c4ccccn4)CC3)ccc2N1 [Compound 9, 6-(3-(4-(pyridin-2-yl)piperazin-1-yl)propoxy)-3,4-dihydroquinolin-2(1H)-one] | 154 to 155 °C |  | 
19 | Clc1ccc2c(c1)CC(CCN1CCN(c3ccccn3)CC1)C2 (centres unmarked) (as salt: HCl) [Compound 16, 1-(2-(5-chloro-2,3-dihydro-1H-inden-2-yl)ethyl)-4-(pyridin-2-yl)piperazine] | 267 to 270 °C |  | 
20 | O=C1CCc2cc(OCCCN3CCN(c4ccccn4)CC3)ccc21 [Compound 11, 5-(3-(4-(pyridin-2-yl)piperazin-1-yl)propoxy)-2,3-dihydro-1H-inden-1-one] | 103 to 104 °C | < 50% | inhibition at 10 µM [1]: < 50%
21 | Nc1ccc(C(=O)CCCN2CCN(c3ccccn3)CC2)cc1 [Compound 5, 1-(4-aminophenyl)-4-(4-(pyridin-2-yl)piperazin-1-yl)butan-1-one] | 203 to 204 °C | < 50% | 
22 | O=C1c2cc(Cl)c(Cl)cc2CC1CCN1CCN(c2ccccn2)CC1 (centres unmarked) [Compound 18, 5,6-Dichloro-2-(2-(4-(pyridin-2-yl)piperazin-1-yl)ethyl)-2,3-dihydro-1H-inden-1-one] |  | < 50% | 
23 | O=C1c2ccc(Cl)cc2CC1CCCCN1CCN(c2ccccn2)CC1 (centres unmarked) (as salt: HCl) [Compound 20, 5-chloro-2-(4-(4-(pyridin-2-yl)piperazin-1-yl)butyl)-2,3-dihydro-1H-inden-1-one] | 233 to 234 °C |  | 
24 | O=C1c2ccc(Cl)cc2CC1CCCN1CCN(c2ccccn2)CC1 (centres unmarked) [drawing 43] |  | < 50% | 
25 | OC1c2ccc(F)cc2CC1CCN1CCN(c2ccccn2)CC1 (centres unmarked) (as salt: hydroiodid) [Compound 14, 5-Fluoro-2-[2-(4-pyridin-2-yl-piperazin-1-yl)-ethyl]-indan-1-ol] | 174 to 175 °C |  | 
